US7514438B2, “Melanin concentrating hormone receptor antagonist” (Amgen, Inc., priority 2003, dated 2009)
Like-named read-outs stand apart in the source and are kept apart here.

Key:
human MCH receptor = target: T1, human MCH receptor (Homo sapiens, UniProt Q99705); assay: hMCH FLIPR calcium mobilization assay; assay type: cell-based
T1 construct: expressed in transfected cells

[1] = target: T2, human MCH 1 receptor (hMCH1R) (Homo sapiens, UniProt Q99705); assay: 125I-MCH ligand binding assay, hMCH; conditions: HEK 293 membranes, 0.2 nM 125I native-MCH
T2 construct: expressed in transfected cells; host or cells: HEK 293 (membranes)
T2 sequence (Q99705 whole entry): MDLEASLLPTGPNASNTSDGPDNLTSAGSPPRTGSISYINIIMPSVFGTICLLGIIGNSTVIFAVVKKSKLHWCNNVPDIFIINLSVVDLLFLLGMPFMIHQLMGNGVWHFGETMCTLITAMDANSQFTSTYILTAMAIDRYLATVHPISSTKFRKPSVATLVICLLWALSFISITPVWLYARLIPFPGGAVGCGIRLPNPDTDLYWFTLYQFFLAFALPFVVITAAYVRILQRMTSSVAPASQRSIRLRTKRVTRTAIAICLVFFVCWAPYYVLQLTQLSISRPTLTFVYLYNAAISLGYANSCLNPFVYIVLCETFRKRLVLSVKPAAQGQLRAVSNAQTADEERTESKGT
Outline: (§1)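 HEK293 membranes expressing rat or human MCH1R (100 µg tissue) were incubated for 90 min at 30 °C with 0.2 nM 125I-native-MCH and test compound in HEPES/MgCl2/BSA buffer with protease inhibitors, pH 7.4. Non-specific binding used 1 µM cold MCH. Filter-bound radioactivity gave IC50 by nonlinear regression.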

rat MCH1 receptor [2] = target: T3, rat MCH1 receptor (Rattus norvegicus, UniProt P97639); assay: HT-PS100 calcium mobilization functional assay; assay type: cell-based; parameters: expressed in transfected cells
T3 sequence (P97639 whole entry): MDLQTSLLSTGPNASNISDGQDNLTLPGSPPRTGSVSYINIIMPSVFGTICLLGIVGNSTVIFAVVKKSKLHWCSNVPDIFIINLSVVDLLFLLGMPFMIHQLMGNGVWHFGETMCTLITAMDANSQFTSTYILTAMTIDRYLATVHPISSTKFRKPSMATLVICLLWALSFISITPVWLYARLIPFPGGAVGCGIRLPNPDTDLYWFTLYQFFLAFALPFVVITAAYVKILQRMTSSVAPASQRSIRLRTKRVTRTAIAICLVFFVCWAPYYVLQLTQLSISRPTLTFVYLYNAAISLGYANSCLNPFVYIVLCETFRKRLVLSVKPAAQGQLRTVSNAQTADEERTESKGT

[3] = target: T4, rat MCH 1 receptor (rMCH1R) (Rattus norvegicus, UniProt P97639); assay: 125I-MCH ligand binding assay, rMCH; conditions: HEK 293 membranes, 0.2 nM 125I native-MCH
T4 construct: expressed in transfected cells; host or cells: HEK 293 (membranes)
T4 sequence (P97639 whole entry): as above
Outline: as §1

rat MCH1 receptor [4] = target: T3, rat MCH1 receptor; assay: rMCH FLIPR calcium mobilization assay (CHOK1-Gqi cells); assay type: cell-based; parameters: expressed in transfected cells; host or cells: CHOK1-Gqi; conditions: CHOK1-Gqi cells, rat MCH1 receptor, 100 μM or less list
Outline: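 Fura-2-loaded CHOK1-Gqi cells expressing rat MCH1R read on FLIPR; agonist mode up to 1 μM; antagonist mode with 10 min pre-incubation (typically 1 μM) then MCH at 5-fold EC50; pA2 from linear regression of MCH EC50 shifts by 10-fold-spaced antagonist concentrations.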

[5] = 100 μM or less list, read-out: Ki in the hMCH FLIPR assay
[6] = 100 μM or less list, read-out: IC50 in the hMCH binding assay
[7] = HEK 293 cells stably transfected with rat MCH1 receptor, 100 nM or less list, read-out: Ki in the HT-PS100 assay
[8] = 100 μM or less list, read-out: IC50 in the rMCH binding assay
[9] = read-out: Ki in the rMCH FLIPR assay
[10] = 100 nM or less list, read-out: IC50 in the hMCH binding assay
[11] = 100 nM or less list, read-out: IC50 in the rMCH binding assay

T1 sequence (Q99705 whole entry): as the sequence (Q99705 whole entry) above

| Ki (human MCH receptor; [5]) [µM] | IC50 [1, 6] [µM] | Ki (rat MCH1 receptor [2]; [7]) [µM] | IC50 [3, 8] [µM] | Ki (rat MCH1 receptor [4]; [9]) [µM] | IC50 [1, 10] [µM] | IC50 [3, 11] [µM] | Structure (SMILES) | Ki (human MCH receptor; Ki in the hMCH FLIPR assay, 100 nM or less list) [µM] | Ki (human MCH receptor; Ki in the hMCH FLIPR assay, 100 μM or less list) [µM] | IC50 ([1]; IC50 in the hMCH binding assay, 100 μM or less list) [µM] | Ki (rat MCH1 receptor [2]) [µM] | IC50 ([3]; IC50 in the rMCH binding assay, 100 μM or less list) [µM] | Ki (rat MCH1 receptor [4]; Ki in the rMCH FLIPR assay) [µM] |
| --- | --- | --- | --- | --- | --- | --- | --- | --- | --- | --- | --- | --- | --- |
| – | – | – | – | – | – | – | Cc1cccc(C)c1-n1nnnc1[C@H](c1cccc(O)c1)N1CCN(C/C=C/c2ccccc2)CC1 (racemic) [Compound 82, 3-{[1-(2,6-dimethylphenyl)-1H-tetrazol-5-yl]-[4-(3-phenylallyl)piperazin-1-yl]methyl}phenol] | ≤ 0.1 | ≤ 100 | ≤ 100 | ≤ 0.1 | ≤ 100 | ≤ 100 |
| ≤ 100 | ≤ 100 | ≤ 0.1 | ≤ 100 | ≤ 100 | – | – | Cc1cccc(C)c1-n1nnnc1[C@H](c1ccc2c(c1)OCO2)N1CCN(C/C=C/c2ccccc2)CC1 (racemic) [Compound 83, 1-{benzo[1,3]dioxol-5-yl-[1-(2,6-dimethylphenyl)-1H-tetrazol-5-yl]methyl}-4-(3-phenylallyl)piperazine] | – | – | – | – | – | – |
| ≤ 100 | ≤ 100 | ≤ 0.1 | ≤ 100 | ≤ 100 | ≤ 0.1 | ≤ 0.1 | Cc1cccc(C)c1-n1nnnc1[C@H](c1cccc(OCCO)c1)N1CCN(C/C=C/c2ccccc2)CC1 (racemic) [Compound 84, 2-(3-{[1-(2,6-dimethylphenyl)-1H-tetrazol-5-yl]-[4-(3-phenylallyl)piperazin-1-yl]methyl}phenoxy)ethanol] | – | – | – | – | – | – |
| ≤ 100 | ≤ 100 | ≤ 0.1 | ≤ 100 | ≤ 100 | ≤ 0.1 | ≤ 0.1 | Cc1cccc(C)c1-n1nnnc1[C@H](c1ccccc1)N1CCN(C/C=C/c2ccccc2)CC1 [Compound 1, 1-{[1-(2,6-dimethyiphenyl)-1H-tetrazol-5-yl]phenylmethyl}-4-(3-phenylallyl)piperazine] | – | – | – | – | – | – |
